Measurements published in publication PMC8911884, “Discovery of Novel 3,4-Dihydro-2(1H)-Quinolinone Sulfonamide Derivatives as New Tubulin Polymerization Inhibitors with Anti-Cancer Activity” (Molecules, 2022).
“Also recorded” adds a separate entry of the source.

How the values were obtained:
[1] = system: HCT116; assay: MTT antiproliferative assay, HCT116; format: cell-based, human; settings: mean ± SD
From the text: (§1) The MTT method was used to evaluate the anti-tumor activity and cytotoxic activity of all the synthesized compounds in four tumor cell lines (HeLa, HCT-116, A549 and HepG-2) and normal liver cells (L02). At the same time, the 5-fluorouracil(5-Fu) and CA-4 were used as positive references. […] Unfortunately, our target compound has a similar cytotoxicity to tumor cells and normal cells.
(§2) The HeLa, HCT-116, A549 and HepG-2 cells in the logarithmic growth phase were trypsinized, diluted with 10% DMEM medium and evenly seeded in a 96-well plate with 1 × 10^4 cells per well. We placed the inoculated 96-well plate in an incubator at 37 °C and 5% CO2 for 4 h. After the cells adhered to the wall, we removed the medium. We added 150 μL of medicated medium (1% DMEM) to each well of the experimental group, and the control group was added with an equal volume of solvent, with 3 replicate holes for each concentration. Then, we put it in the incubator and continued to incubate for 48 h. After that, we added MTT reagent in the dark, continued incubating for 4 h, discarded the supernatant, added 150 µL DMSO to each well and shook it for 10 min in the dark to fully dissolved the formazan. The absorbance was read at 492 nm by a microplate reader (ELx 800, BioTek, Highland Park, Winooski, VT, USA).
(§3) The inhibition rate (%) = (1-dosing hole OD value/control hole OD value); we drew a logarithmic curve diagram according to the inhibition rate and the dosing concentration to obtain the half inhibitory concentration.

[2] = system: HeLa; assay: MTT antiproliferative assay, HeLa; format: cell-based, human; settings: 48 h, mean ± SD
From the text: as §1, §2, §3

[3] = system: L02; assay: MTT cytotoxicity assay, normal liver cells L02; format: cell-based; settings: mean ± SD
From the text: as §1, §2, §3

[4] = system: A549; assay: MTT antiproliferative assay, A549; format: cell-based, human; settings: mean ± SD
Procedure: The MTT method was used to evaluate the anti-tumor activity and cytotoxic activity of all the synthesized compounds in four tumor cell lines (HeLa, HCT-116, A549 and HepG-2) and normal liver cells (L02).
as §2, §3

[5] = system: HeLa, HCT-116, A549 and HepG-2; assay: MTT antiproliferative activity across the four tumor cell lines; format: cell-based, human; settings: SAR discussion
From the text: as §1
As shown in, at the beginning, we first synthesized the ortho and meta substituted compounds, D7, D8, D9, D11 and D15. […] Then, we decided to introduce para-substituted benzaldehyde. […] This stimulated our interest, so we continued to introduce -OCH3 substituted at different positions to explore the effect of -OCH3 substituted at different positions on the anti-tumor activity of the compound. […] In short, we obtained a compound named D13 with good anti-tumor activity, and it was worthy of further study.
as §2, §3

[6] = system: HepG-2; assay: MTT antiproliferative assay, HepG-2; format: cell-based, human; settings: mean ± SD
From the text: as §1, §2, §3

[7] = target: T1, tubulin (Sus scrofa, UniProt P02550+P02554); assay: In vitro tubulin polymerization assay (fluorescence kit); format: biochemical; settings: area under fluorescence curve, 37 °C, 40 min
T1 construct: purchased Cytoskeleton (Danvers, MA, USA) BK011P
T1 sequence (P02554 whole entry): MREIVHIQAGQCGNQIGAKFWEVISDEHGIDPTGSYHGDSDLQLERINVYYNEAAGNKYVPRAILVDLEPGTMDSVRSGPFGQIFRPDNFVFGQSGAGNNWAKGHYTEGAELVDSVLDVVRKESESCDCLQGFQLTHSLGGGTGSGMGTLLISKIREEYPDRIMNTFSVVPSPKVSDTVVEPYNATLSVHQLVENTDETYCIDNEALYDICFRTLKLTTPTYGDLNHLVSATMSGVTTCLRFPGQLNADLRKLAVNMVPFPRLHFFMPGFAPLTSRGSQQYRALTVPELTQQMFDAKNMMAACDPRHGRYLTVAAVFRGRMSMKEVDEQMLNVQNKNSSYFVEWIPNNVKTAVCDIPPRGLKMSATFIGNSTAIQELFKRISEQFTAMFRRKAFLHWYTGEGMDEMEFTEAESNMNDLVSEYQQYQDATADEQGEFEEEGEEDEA
T1 sequence (P02550 whole entry): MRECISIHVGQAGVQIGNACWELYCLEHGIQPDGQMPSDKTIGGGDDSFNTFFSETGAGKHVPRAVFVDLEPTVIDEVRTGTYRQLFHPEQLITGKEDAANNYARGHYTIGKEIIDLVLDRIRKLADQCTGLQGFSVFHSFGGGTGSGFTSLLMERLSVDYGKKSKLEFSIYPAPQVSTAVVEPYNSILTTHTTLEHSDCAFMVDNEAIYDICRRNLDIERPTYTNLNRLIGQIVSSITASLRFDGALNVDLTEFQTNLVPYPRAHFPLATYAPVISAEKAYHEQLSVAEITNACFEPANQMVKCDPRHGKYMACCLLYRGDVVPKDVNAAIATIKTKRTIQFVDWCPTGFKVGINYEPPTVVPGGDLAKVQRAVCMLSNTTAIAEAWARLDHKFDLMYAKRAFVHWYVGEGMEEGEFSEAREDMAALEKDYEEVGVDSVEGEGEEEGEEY

Compound	IC50 ([1]; Homo sapiens, HCT-116, 48 h) [µM]	IC50 ([2]; Homo sapiens, HeLa) [µM]	melting point [°C]	IC50 ([4]; Homo sapiens, A549, 48 h) [µM]	IC50 ([1]; 48 h) [µM]	IC50 [2] [µM]	IC50 ([4]; 48 h) [µM]	IC50 [7] [µM]	IC50 ([3]; Homo sapiens, L02, 48 h) [µM]	antiproliferative activity (in words) [5]	IC50 ([6]; 48 h) [µM]	IC50 ([3]; 48 h) [µM]	IC50 ([6]; Homo sapiens, HepG2, 48 h) [µM]
COc1cc(N(Cc2ccc(Cl)c(Cl)c2)S(=O)(=O)c2ccc3c(c2)CCC(=O)N3)cc(OC)c1OC [Compound D10, N-(3,4-dichlorobenzyl)-2-oxo-N-(3,4,5-trimethoxyphenyl)-1,2,3,4-tetrahydroquinoline-6-sulfonamide]	51.2 ± 13.5	75.3 ± 10.3	123 to 125	> 100					48.3 ± 6.64				
COc1cc(N(Cc2ccccc2F)S(=O)(=O)c2ccc3c(c2)CCC(=O)N3)cc(OC)c1OC [Compound D8, N-(2-fluorobenzyl)-2-oxo-N-(3,4,5-trimethoxyphenyl)-1,2,3,4-tetrahydroquinoline-6-sulfonamide]	17.5 ± 1.33	21.6 ± 3.56	138 to 140	> 100					60.2 ± 4.21	poor antiproliferative activity			50.9 ± 6.77
COc1ccc(/C=C\c2cc(OC)c(OC)c(OC)c2)cc1O [CA-4, Combretastatin A-4, reference compound]	0.04 ± 0.016	0.02 ± 0.001		0.12 ± 0.023					0.15 ± 0.05				0.05 ± 0.021
COc1cc(N(Cc2ccc(C)cc2)S(=O)(=O)c2ccc3c(c2)CCC(=O)N3)cc(OC)c1OC [Compound D5, N-(4-methylbenzyl)-2-oxo-N-(3,4,5-trimethoxyphenyl)-1,2,3,4-tetrahydroquinoline-6-sulfonamide]	1.13 ± 0.01	1.34 ± 0.3	128 to 130	2.96 ± 0.13					3.05 ± 0.19	strong anti-proliferative activity			2.36 ± 0.11
COc1cc(CN(c2cc(OC)c(OC)c(OC)c2)S(=O)(=O)c2ccc3c(c2)CCC(=O)N3)cc(OC)c1OC [Compound D16, 2-oxo-N-(3,4,5-trimethoxybenzyl)-N-(3,4,5-trimethoxyphenyl)-1,2,3,4-tetrahydroquinoline-6-sulfonamide]	2.08 ± 0.24	4.91 ± 0.76	131 to 133	7.34 ± 1.44					4.25 ± 0.87				5.48 ± 1.23
COc1cccc(CN(c2cc(OC)c(OC)c(OC)c2)S(=O)(=O)c2ccc3c(c2)CCC(=O)N3)c1 [Compound D12, N-(3-methoxybenzyl)-2-oxo-N-(3,4,5-trimethoxyphenyl)-1,2,3,4-tetrahydroquinoline-6-sulfonamide]	48.2 ± 7.46	54.6 ± 8.15	121 to 123						56.3 ± 2.15	poor antiproliferative activity			64.1 ± 7.56
COc1cc(N(Cc2ccc(F)cc2)S(=O)(=O)c2ccc3c(c2)CCC(=O)N3)cc(OC)c1OC [Compound D3, N-(4-fluorobenzyl)-2-oxo-N-(3,4,5-trimethoxyphenyl)-1,2,3,4-tetrahydroquinoline-6-sulfonamide]	3.87 ± 0.12	7.54 ± 1.48	108 to 110	18.2 ± 4.11					5.31 ± 1.08	strong anti-proliferative activity			6.31 ± 1.21

Now from value to compound, other results behind:

IC50 ([1]; Homo sapiens, HCT-116, 48 h) [µM]	IC50 ([2]; Homo sapiens, HeLa) [µM]	melting point [°C]	IC50 ([4]; Homo sapiens, A549, 48 h) [µM]	IC50 ([1]; 48 h) [µM]	IC50 [2] [µM]	IC50 ([4]; 48 h) [µM]	IC50 [7] [µM]	Compound	IC50 ([3]; Homo sapiens, L02, 48 h) [µM]	antiproliferative activity (in words) [5]	IC50 ([6]; 48 h) [µM]	IC50 ([3]; 48 h) [µM]	IC50 ([6]; Homo sapiens, HepG2, 48 h) [µM]
87.8 ± 15.2	> 100	116 to 118	49.3 ± 12.5					COc1ccc(CN(c2cc(OC)c(OC)c(OC)c2)S(=O)(=O)c2ccc3c(c2)CCC(=O)N3)cc1OC [Compound D14, N-(3,4-dimethoxybenzyl)-2-oxo-N-(3,4,5-trimethoxyphenyl)-1,2,3,4-tetrahydroquinoline-6-sulfonamide]	66.5 ± 7.81	poor antiproliferative activity			
				25.9 ± 0.98	13.5 ± 2.15	14.2 ± 1.26		N-benzyl-2-oxo-N-(3,4,5-trimethoxyphenyl)-1,2,3,4-tetrahydroquinoline-7-sulfonamide [Compound D1]		strong anti-proliferative activity	9.87 ± 2.49	20.7 ± 3.12	
12.2 ± 2.89	16.9 ± 4.11	117 to 119	31.7 ± 4.55					COc1cc(N(Cc2ccccc2Cl)S(=O)(=O)c2ccc3c(c2)CCC(=O)N3)cc(OC)c1OC [Compound D9, N-(2-chlorobenzyl)-2-oxo-N-(3,4,5-trimethoxyphenyl)-1,2,3,4-tetrahydroquinoline-6-sulfonamide]	36.2 ± 4.21	poor antiproliferative activity			27.5 ± 3.28
> 100	86.4 ± 14.2	127 to 129						COc1ccc(OC)c(CN(c2cc(OC)c(OC)c(OC)c2)S(=O)(=O)c2ccc3c(c2)CCC(=O)N3)c1 [Compound D15]	> 100	poor antiproliferative activity			75.4 ± 15.4
28.2 ± 4.26	36.5 ± 3.59	120 to 122	35 ± 6.74					COc1cc(N(Cc2cccc(C)c2)S(=O)(=O)c2ccc3c(c2)CCC(=O)N3)cc(OC)c1OC [Compound D7, N-(3-methylbenzyl)-2-oxo-N-(3,4,5-trimethoxyphenyl)-1,2,3,4-tetrahydroquinoline-6-sulfonamide]	30.2 ± 2.56	poor antiproliferative activity			44.3 ± 4.31
11.7 ± 2.37	29.6 ± 3.21							O=c1[nH]cc(F)c(=O)[nH]1 [Compound 5-Fu, 5-fluorouracil, reference compound]	20 ± 1.25				18.3 ± 0.76
0.94 ± 0.31	1.34	122 to 124	1.57 ± 0.25		1.46 ± 0.11		6.74	COc1ccc(CN(c2cc(OC)c(OC)c(OC)c2)S(=O)(=O)c2ccc3c(c2)CCC(=O)N3)cc1 [Compound D13, N-(4-methoxybenzyl)-2-oxo-N-(3,4,5-trimethoxyphenyl)-1,2,3,4-tetrahydroquinoline-6-sulfonamide]	3.61 ± 1.02	strongest anti-proliferative activity; also recorded: strong anti-proliferative activity			1.82 ± 0.97
4.21 ± 0.5	9.67 ± 2.1	119 to 121	8.49 ± 1.77					COc1cc(N(Cc2ccc(Cl)cc2)S(=O)(=O)c2ccc3c(c2)CCC(=O)N3)cc(OC)c1OC [Compound D4, N-(4-chlorobenzyl)-2-oxo-N-(3,4,5-trimethoxyphenyl)-1,2,3,4-tetrahydroquinoline-6-sulfonamide]	6.35 ± 2.03	strong anti-proliferative activity			4.12 ± 0.55
2.05 ± 0.11	3.63 ± 0.98	127 to 129	2.42 ± 0.46					COc1cc(N(Cc2ccc(N(C)C)cc2)S(=O)(=O)c2ccc3c(c2)CCC(=O)N3)cc(OC)c1OC [Compound D6, N-(4-(dimethylamino)benzyl)-2-oxo-N-(3,4,5-trimethoxyphenyl)-1,2,3,4-tetrahydroquinoline-6-sulfonamide]	5.31 ± 1.02	strong anti-proliferative activity			4.74 ± 1.56
